In publication PMC7037671, “Naphthoquinone Derivatives with Anti-Inflammatory Activity from Mangrove-Derived Endophytic Fungus Talaromyces sp. SK-S009” (Molecules, 2020):
Like-named read-outs stand apart in the source and are kept apart here.

Key:
[1] = test system: LPS-induced NO production in the murine macrophage cell line (RAW 264.7 cells); experiment: Inhibition of LPS-induced NO production (Griess reagent); assay type: cell-based; conditions: Mus musculus, read-out: IC50 against LPS-induced NO production
Description: (§1) The nitrite/nitrate oxidized from NO was detected by the Griess reagent as previously reported with slight modifications. The murine macrophage cell line (RAW 264.7 cells) were seeded in 96-well plates at a density of 1 × 10^5 cells/well and preincubated for 12 h. The tested compounds were dissolved in dimethylsulfoxide (DMSO) and diluted with Dulbecco’s Modified Eagle Medium (DMEM) medium to a final concentration (final DMSO concentration <0.1% in all assays). Indomethacin was used as the positive control. Cells were stimulated with 1µg/mL of lipopolysaccharide (LPS, Sigma, St. Louis, MO, USA) with or without tested compounds for 24 h. Then culture supernatant was mixed with an equal volume of Griess reagent I and II (Beyotime, Shanghai, China), and measured at 540 nm using a microplate reader (Bio-Rad Laboratories, Inc., Kyoto, Japan). Cell viability was evaluated using MTT assay.

[2] = Cytotoxicity / cell viability by MTT assay; assay type: cell-based, murine; conditions: mouse, RAW 264.7 cells, MTT assay
Description: as §1

RAW 264.7 cells = experiment: Cytotoxicity / cell viability by MTT assay; assay type: cell-based, murine; conditions: CC50 (MTT) / IC50 (NO production)
Description: as §1

[3] = test system: inducible nitric oxide synthase (iNOS) mRNA; experiment: Real-time PCR, iNOS mRNA expression in LPS-stimulated RAW 264.7 cells; assay type: cell-based, murine; conditions: LPS (1 μg/mL) 12 h, 1 h pretreatment, 1, 2, 4 μM, RT-PCR
Description: (§2) Figure 4 RAW 264.7 murine macrophage cells were pre-incubated for 12h, and then cells were pretreated with compound 9 at the indicated concentration for 1 h and incubated with LPS (1 μg/mL) for 12h (real-time PCR). The effect of compound 9 on the mRNA expressions of inducible nitric oxide synthase (iNOS) (A), cyclooxygenase-2 (COX-2)(B), tumor necrosis factor (TNF)-α (C), interleukin (IL)-6 (D), and IL-1β (E) were detected by real-time PCR. The data represent the mean values ± SD of three experiments, * p < 0.05, ** p < 0.01 compared to LPS-treated group.
(§3) RAW264.7 cells were placed in a 6-well plate at a density of 1 × 10^6 cells/well and incubated for 12 h. Cultured cells were pretreated with compound 9 (1, 2, 4 μM/L) for 1 h and incubated with LPS (1 μg/mL) for 12 h. RNA was extracted with Trizol Reagent (Takara Bio Inc., Otsu, Japan) according to the manufacturer’s instructions, and cDNA was reverse transcribed from total RNA using a Superscript III system (Takara Bio Inc., Otsu, Japan). PCR amplification was carried out using PikoReal™ (Thermo Fisher Scientific, MA, US) and specific primers. The optimal conditions for PCR amplification of the cDNA were established by following the manufacturer’s instructions. Relative gene expression was calculated using the comparative Ct method (2^−ΔΔCt) with glyceraldehyde-3-phosphate dehydrogenase (GAPDH) as an internal control. […]

[4] = test system: cyclooxygenase-2 (COX-2) mRNA; experiment: Real-time PCR, COX-2 mRNA expression in LPS-stimulated RAW 264.7 cells; assay type: cell-based, murine; conditions: LPS (1 μg/mL) 12 h, 1 h pretreatment, 1, 2, 4 μM, RT-PCR
Description: as §2, §3

[5] = test system: tumor necrosis factor (TNF)-α mRNA; experiment: Real-time PCR, TNF-α mRNA expression in LPS-stimulated RAW 264.7 cells; assay type: cell-based, murine
Description: as §2, §3

interleukin (IL)-1β mRNA = experiment: Real-time PCR, IL-1β mRNA expression in LPS-stimulated RAW 264.7 cells; assay type: cell-based, murine
Description: as §2, §3

IL-6 mRNA = experiment: Real-time PCR, IL-6 mRNA expression in LPS-stimulated RAW 264.7 cells; assay type: cell-based, murine
Description: as §2, §3

[6] = RAW264.7, RAW 264.7 cells, LPS 1 µg/mL, 24 h, means ± SD, n = 3
[7] = RAW 264.7 macrophage cells, means ± SD, n = 3, read-out: CC50
[8] = RAW 264.7 macrophage cells, tested at 50 μM, read-out: CC50 (cytotoxicity, class symbol)
[9] = 2.0 μM, compared with the control groups
[10] = LPS (1 μg/mL) 12 h, 1 h pretreatment, 1, 2, 4 μM, RT-PCR

Structure (SMILES)	IC50 [1, 6] [µM]	CC50 at 24 h [2, 7] [µM]	SI (selectivity index, CC50/IC50) (RAW 264.7 cells)	CC50 at 24 h [2, 8] [µM]	further results
COc1cc(O)c2c(c1)C(=O)C(C[C@H](C)O)=C(C)C2=O [Compound 1, Talanaphthoquinone A]	3.9 ± 0.5	30.7 ± 0.5	7.9		
COC1=CC(=O)c2c(O)c(C)c3c(c2C1=O)OC(CO)C3 (stereo not shown) [Compound 2, Talanaphthoquinone B]	49.7 ± 1.5			> 50	melting point: 157.7 to 159.3 °C
COC1=CC(=O)c2c(O)c(C)c3c(c2C1=O)OC(C)C3 (stereo not shown) [Compound 3, anhydrojavanicin]	16 ± 0.2				CC50 at 24 h ([2]; tested at 50 μM, read-out: CC50 (cytotoxicity, class symbol)): > 50 µM
COC1=CC(=O)c2c(O)c(CO)c3c(c2C1=O)OC(C)C3 (stereo not shown) [Compound 4, 2,3-dihydro-5-hydroxy-4-hydroxymethyl-8-methoxy-2-methylnaphtho[1,2-b]furan-6,9-dione]	22.6 ± 0.5			> 50	
COC1=CC(=O)c2c(O)c(C)c3cc(C)oc3c2C1=O [Compound 5, anhydrojavanicin]	11.2 ± 0.3			> 50	
COC1=CC(=O)c2c(O)c3c(c(O)c2C1=O)C=C(C)OC3 [Compound 6, anhydrofusarubin]				> 50	IC50 ([1]; RAW264.7, 24 h): 5.2 ± 0.1 µM
CCc1c(OC)cc2c(c1O)C(=O)C=C(OC)C2=O [Compound 8, 6-ethyl-2,7-dimethoxyjuglone]	7.7 ± 0.3			> 50	
COC1=CC(=O)c2c(cc(OC)c(C(C)OC(C)=O)c2O)C1=O (stereo not shown) [Compound 9, 6-[1-(acetyloxy)ethyl]-5-hydroxy-2,7-dimethoxy-1,4-naphthalenedione]	1.7 ± 0.2	50.3 ± 1.5	29.6		effect on iNOS mRNA expression [3]: apparently reduced; effect on COX-2 mRNA expression [4]: apparently reduced; inhibition of TNF-α mRNA expression [5, 9]: about 80%; effect on TNF-α mRNA expression [5, 10]: apparently reduced; inhibition of IL-1β mRNA expression (interleukin (IL)-1β mRNA; [9]): about 80%; effect on IL-1β mRNA expression (interleukin (IL)-1β mRNA; [10]): apparently reduced; inhibition of IL-6 mRNA expression (IL-6 mRNA; [9]): about 80%; effect on IL-6 mRNA expression (IL-6 mRNA; [10]): apparently reduced
COC1=CC(=O)c2c(cc(OC)c(C(C)O)c2O)C1=O (stereo not shown) [Compound 10, 5-hydroxy-6-(1-hydroxyethyl)-2,7-dimethoxy-1,4-naphthalenedione]	7.5 ± 0.2	15.8 ± 0.4	2.1		
COC1=CC(=O)c2c(O)c(C)c(CC(C)O)c(O)c2C1=O (stereo not shown) [Compound 11, solaniol]	15.5 ± 0.6		3.8		CC50 at 24 h ([2]; means ± SD, n = 3, read-out: CC50): 59.2 ± 1.5 µM
COC1=CC(=O)c2c(O)c(C)c(CC(C)=O)c(O)c2C1=O [Compound 12, javanicin]	5.6 ± 0.3	48.4 ± 1.3	8.6		
COc1ccc2c(c1)c(CC(=O)O)c(C)n2C(=O)c1ccc(Cl)cc1 [Indomethacin, reference compound]	26.3 ± 0.6				
